# Laboratory results from US20220331257A1, “LIQUID PHARMACEUTICAL COMPOSITIONS WITH STABLE DRUG RELEASE PROFILES” (Avadel Legacy Pharmaceuticals, LLC, priority 2019, published 2022).
# Experiments:
# [1] = Osmolality of saturated solutions of drugs in water (vapor pressure osmometer); assay type: physicochemical
# [2] = Solubility of drugs in water (saturated solutions); settings: saturated solution in water
# [3] = Osmolality of osmotic agent solutions (external phase); assay type: physicochemical; settings: for Osmolality (extrapolated): third order polynomial fit
# From the text: In these attempts, the osmolality ratio of the composition was greater than 1 (measured at ambient temperature using a vapor pressure osmometer (model Vapro 5600 XR from ELITech/WESCOR) with a measurement range from 20 mosmol/kg to 3500 mosmol/kg).
# To determine the osmolality of the external phase of the compositions, it was assumed that only the osmotic agent contributed to the external phase's osmolality because, in addition to the osmotic agent, the external phase contained only minimal amounts of the suspending agent (e.g., 0.1-0.2 wt %). Measurements were obtained experimentally up to 40 wt % sorbitol and up to 50 wt % maltitol and then extrapolated to 60 wt % using a fit with a third order polynomial form (Table 2). Measurements were also obtained for a commercially available sorbitol solution, NEOSORB® 70/70B, containing 70% of dry substance and a minimum of 74% sorbitol in the dry substance (Table 2).
# [4] = Saturation of the continuous phase by the drug; assay type: physicochemical; settings: continuous phase 60 wt % maltitol, 0.2 wt % xanthan gum, about pH 7.2
# Protocol: A “continuous phase” or “liquid phase” as used herein, refers to the fluid or liquid phase of the suspension in which the particles are dispersed. The continuous phase may not be saturated by the drug. “Not saturated by the drug” as used herein refers to the amount of drug in the continuous phase being less than the amount at which the continuous phase is saturated with the drug at the temperature at which the saturation is measured. The temperature at which saturation is measured corresponds to the temperature at which stability is performed. In an example, saturation is measured at 30° C.
smiles,measurement,setting,value
"CC(=O)Nc1ccc(O)cc1 [Acetaminophen, acetaminophen]",Osmolality of saturated solution,[1]; 25° C.,74 mosmol/kg
same,Osmolality of saturated solution,[1]; 40° C.,112 mosmol/kg
same,Solubility,[2]; 25° C.,14 mg/g
same,Solubility,[2]; 40° C.,20 mg/g
"CC(=O)Oc1ccccc1C(=O)O [Aspirin, aspirin]",Solubility,[2]; 25° C.,2.5 mg/g
"Cc1ccc(=O)n(-c2ccccc2)c1 [Pirfenidone, pirfenidone]",Osmolality of saturated solution,[1]; 25° C.,84 mosmol/kg
same,Solubility,[2]; 25° C.,18 mg/g
"OC[C@@H](O)[C@@H](O)[C@H](O)[C@@H](O)CO [Sorbitol, sorbitol]",Osmolality (experimental),[3]; dry matter content 5% (wt %),276 mOsm/kg sol
same,Osmolality (extrapolated),[3]; dry matter content 5% (wt %),269 mOsm/kg
same,Osmolality (experimental),[3]; dry matter content 10% (wt %),599 mOsm/kg sol
same,Osmolality (extrapolated),[3]; dry matter content 10% (wt %),610 mOsm/kg
same,Osmolality (experimental),[3]; dry matter content 15% (wt %),954 mOsm/kg sol
same,Osmolality (extrapolated),[3]; dry matter content 15% (wt %),960 mOsm/kg
same,Osmolality (experimental),[3]; dry matter content 20% (wt %),1376 mOsm/kg sol
same,Osmolality (extrapolated),[3]; dry matter content 20% (wt %),1364 mOsm/kg
same,Osmolality (experimental),[3]; dry matter content 25% (wt %),1844 mOsm/kg sol
same,Osmolality (extrapolated),[3]; dry matter content 25% (wt %),1830 mOsm/kg
same,Osmolality (experimental),[3]; dry matter content 30% (wt %),2407 mOsm/kg sol
same,Osmolality (extrapolated),[3]; dry matter content 30% (wt %),2426 mOsm/kg
same,Osmolality (experimental),[3]; dry matter content 40% (wt %),4125 mOsm/kg sol
same,Osmolality (extrapolated),[3]; dry matter content 40% (wt %),4122 mOsm/kg
same,Osmolality (extrapolated),[3]; dry matter content 50% (wt %),6816 mOsm/kg
same,Osmolality (extrapolated),[3]; dry matter content 60% (wt %),10777 mOsm/kg
COc1ccccc1OCC(O)CO (centres unmarked) [guaifenesin],saturation of the continuous phase by the drug,[4],15.3 mg/g
OC[C@@H](O)[C@@H](O[C@H]1O[C@H](CO)[C@@H](O)[C@H](O)[C@H]1O)[C@H](O)[C@@H](O)CO [maltitol],Osmolality (experimental),[3]; dry matter content 10% (wt %),333 mOsm/kg sol
same,Osmolality (extrapolated),[3]; dry matter content 10% (wt %),330 mOsm/kg
same,Osmolality (experimental),[3]; dry matter content 20% (wt %),779 mOsm/kg sol
same,Osmolality (extrapolated),[3]; dry matter content 20% (wt %),791 mOsm/kg
same,Osmolality (experimental),[3]; dry matter content 30% (wt %),1340 mOsm/kg sol
same,Osmolality (extrapolated),[3]; dry matter content 30% (wt %),1322 mOsm/kg
same,Osmolality (experimental),[3]; dry matter content 40% (wt %),2265 mOsm/kg sol
same,Osmolality (extrapolated),[3]; dry matter content 40% (wt %),2277 mOsm/kg
same,Osmolality (experimental),[3]; dry matter content 50% (wt %),3882 mOsm/kg sol
same,Osmolality (extrapolated),[3]; dry matter content 50% (wt %),3879 mOsm/kg
same,Osmolality (extrapolated),[3]; dry matter content 60% (wt %),6538 mOsm/kg
